Patent US9951028B2, “Agricultural chemicals” (REDAG CROP PROTECTION LTD, priority 2013, dated 2018)

How the values were obtained:
[1] = test system: common chickweed, Stellaria media; experiment: Herbicidal efficacy screen, potter tower spray, necrosis assessed; type: in vivo
Method: (§1) Compounds 22, 23 and 24 were screened for herbicidal efficacy against target plants: garden cress, Lepidium sativum, common chickweed, Stellaria media, and white mustard […] alba Plants were obtained as seeds and were grown to the 2-4 true leaf stage. Plants were grown under laboratory conditions, individually in seed trays. Each plant (in an approximately 3 cm diameter plug) was then detached from the tray for spraying. The compounds were screened at a range of five concentrations, diluted in acetone and TweenTM. A carrier only control was also conducted. Treatments were applied directly onto the plants, using a potter tower, at a specified application rate. One plant of each species was sprayed using a potter tower. The 3 different types of plants were placed on a 10 cm diameter platform directly beneath the potter sprayer and sprayed simultaneously. The growth of the plants and any Phytotoxicity effects were then assessed at intervals over 21 days, according to EPPO guideline PP1/135. Five replicas were performed for each treatment, for each species. In the tables below C represents a percentage increase in necrosis relative to the control of 0.1-50; B represents a percentage inhibition of 50-80; and A represents a percentage inhibition of 80-100.

[2] = test system: garden cress, Lepidium sativum; experiment: as above; type: in vivo
Method: as §1

[3] = 12.5 g/ha, day 1 post application
[4] = 12.5 g/ha, day 2 post application
[5] = 12.5 g/ha, day 3 post application
[6] = 12.5 g/ha, day 4 post application
[7] = 12.5 g/ha, day 5 post application
[8] = 12.5 g/ha, day 7 post application
[9] = 12.5 g/ha, day 10 post application
[10] = 25 g/ha, day 1 post application
[11] = 25 g/ha, day 2 post application
[12] = 25 g/ha, day 3 post application
[13] = 25 g/ha, day 4 post application
[14] = 25 g/ha, day 5 post application
[15] = 25 g/ha, day 7 post application
[16] = 25 g/ha, day 10 post application
[17] = 50 g/ha, day 1 post application
[18] = 50 g/ha, day 2 post application
[19] = 50 g/ha, day 3 post application
[20] = 50 g/ha, day 4 post application
[21] = 50 g/ha, day 5 post application
[22] = 50 g/ha, day 7 post application
[23] = 50 g/ha, day 10 post application
[24] = 100 g/ha, day 1 post application
[25] = 100 g/ha, day 2 post application
[26] = 100 g/ha, day 3 post application
[27] = 100 g/ha, day 4 post application
[28] = 100 g/ha, day 5 post application
[29] = 100 g/ha, day 7 post application
[30] = 100 g/ha, day 10 post application
[31] = 200 g/ha, day 1 post application
[32] = 200 g/ha, day 2 post application
[33] = 200 g/ha, day 3 post application
[34] = 200 g/ha, day 4 post application

Question: Which results are given for `CC(C)C(C)S(=O)(=O)NCc1cc(-n2c(=O)cc(C(F)(F)F)n(C)c2=O)c(F)cc1Cl` (stereo not shown) [Compound 24, N-[[2-Chloro-4-fluoro-5-[3-methyl-2,6-dioxo-4-(trifluoromethyl)pyrimidin-1-yl]phenyl]methyl]-3-methyl-butane-2-sulfonamide]?
Answer: Average of necrosis [1, 3]: C (C represents a percentage increase in necrosis relative to the control of 0.1-50); Average of necrosis [1, 4]: C (C represents a percentage increase in necrosis relative to the control of 0.1-50); Average of necrosis [1, 5]: C (C represents a percentage increase in necrosis relative to the control of 0.1-50); Average of necrosis [1, 6]: C (C represents a percentage increase in necrosis relative to the control of 0.1-50); Average of necrosis [1, 7]: C (C represents a percentage increase in necrosis relative to the control of 0.1-50); Average of necrosis [1, 8]: C (C represents a percentage increase in necrosis relative to the control of 0.1-50); Average of necrosis [1, 9]: C (C represents a percentage increase in necrosis relative to the control of 0.1-50); Average of necrosis [1, 10]: C (C represents a percentage increase in necrosis relative to the control of 0.1-50); Average of necrosis [1, 11]: C (C represents a percentage increase in necrosis relative to the control of 0.1-50); Average of necrosis [1, 12]: C (C represents a percentage increase in necrosis relative to the control of 0.1-50); Average of necrosis [1, 13]: C (C represents a percentage increase in necrosis relative to the control of 0.1-50); Average of necrosis [1, 14]: C (C represents a percentage increase in necrosis relative to the control of 0.1-50); Average of necrosis [1, 15]: C (C represents a percentage increase in necrosis relative to the control of 0.1-50); Average of necrosis [1, 16]: C (C represents a percentage increase in necrosis relative to the control of 0.1-50); Average of necrosis [1, 17]: C (C represents a percentage increase in necrosis relative to the control of 0.1-50); Average of necrosis [1, 18]: C (C represents a percentage increase in necrosis relative to the control of 0.1-50); Average of necrosis [1, 19]: C (C represents a percentage increase in necrosis relative to the control of 0.1-50); Average of necrosis [1, 20]: C (C represents a percentage increase in necrosis relative to the control of 0.1-50); Average of necrosis [1, 21]: A (A represents a percentage inhibition of 80-100); Average of necrosis [1, 22]: A (A represents a percentage inhibition of 80-100); Average of necrosis [1, 23]: A (A represents a percentage inhibition of 80-100); Average of necrosis [1, 24]: C (C represents a percentage increase in necrosis relative to the control of 0.1-50); Average of necrosis [1, 25]: C (C represents a percentage increase in necrosis relative to the control of 0.1-50); Average of necrosis [1, 26]: C (C represents a percentage increase in necrosis relative to the control of 0.1-50); Average of necrosis [1, 27]: B (B represents a percentage inhibition of 50-80); Average of necrosis [1, 28]: B (B represents a percentage inhibition of 50-80); Average of necrosis [1, 29]: B (B represents a percentage inhibition of 50-80); Average of necrosis [1, 30]: A (A represents a percentage inhibition of 80-100); Average of necrosis [1, 31]: C (C represents a percentage increase in necrosis relative to the control of 0.1-50); Average of necrosis [1, 32]: C (C represents a percentage increase in necrosis relative to the control of 0.1-50); Average of necrosis [1, 33]: C (C represents a percentage increase in necrosis relative to the control of 0.1-50); Average of necrosis [1, 34]: C (C represents a percentage increase in necrosis relative to the control of 0.1-50); Average of necrosis ([1]; 200 g/ha, day 5 post application): A (A represents a percentage inhibition of 80-100); Average of necrosis ([1]; 200 g/ha, day 7 post application): A (A represents a percentage inhibition of 80-100); Average of necrosis ([1]; 200 g/ha, day 10 post application): A (A represents a percentage inhibition of 80-100); Average of necrosis [2, 3]: C (C represents a percentage increase in necrosis relative to the control of 0.1-50); Average of necrosis [2, 4]: C (C represents a percentage increase in necrosis relative to the control of 0.1-50); Average of necrosis [2, 5]: C (C represents a percentage increase in necrosis relative to the control of 0.1-50); Average of necrosis [2, 6]: C (C represents a percentage increase in necrosis relative to the control of 0.1-50); Average of necrosis [2, 7]: C (C represents a percentage increase in necrosis relative to the control of 0.1-50); Average of necrosis [2, 8]: C (C represents a percentage increase in necrosis relative to the control of 0.1-50); Average of necrosis [2, 9]: B (B represents a percentage inhibition of 50-80); Average of necrosis [2, 10]: C (C represents a percentage increase in necrosis relative to the control of 0.1-50); Average of necrosis [2, 11]: C (C represents a percentage increase in necrosis relative to the control of 0.1-50); Average of necrosis [2, 12]: C (C represents a percentage increase in necrosis relative to the control of 0.1-50); Average of necrosis [2, 13]: C (C represents a percentage increase in necrosis relative to the control of 0.1-50); Average of necrosis [2, 14]: C (C represents a percentage increase in necrosis relative to the control of 0.1-50); Average of necrosis [2, 15]: C (C represents a percentage increase in necrosis relative to the control of 0.1-50); Average of necrosis [2, 16]: C (C represents a percentage increase in necrosis relative to the control of 0.1-50); Average of necrosis [2, 17]: C (C represents a percentage increase in necrosis relative to the control of 0.1-50); Average of necrosis [2, 18]: C (C represents a percentage increase in necrosis relative to the control of 0.1-50); Average of necrosis [2, 19]: B (B represents a percentage inhibition of 50-80); Average of necrosis [2, 20]: B (B represents a percentage inhibition of 50-80); Average of necrosis [2, 21]: B (B represents a percentage inhibition of 50-80); Average of necrosis [2, 22]: A (A represents a percentage inhibition of 80-100); Average of necrosis [2, 23]: A (A represents a percentage inhibition of 80-100); Average of necrosis [2, 24]: C (C represents a percentage increase in necrosis relative to the control of 0.1-50); Average of necrosis [2, 25]: C (C represents a percentage increase in necrosis relative to the control of 0.1-50); Average of necrosis [2, 26]: C (C represents a percentage increase in necrosis relative to the control of 0.1-50); Average of necrosis [2, 27]: B (B represents a percentage inhibition of 50-80); Average of necrosis [2, 28]: B (B represents a percentage inhibition of 50-80); Average of necrosis [2, 29]: B (B represents a percentage inhibition of 50-80); Average of necrosis [2, 30]: B (B represents a percentage inhibition of 50-80); Average of necrosis [2, 31]: C (C represents a percentage increase in necrosis relative to the control of 0.1-50); Average of necrosis [2, 32]: C (C represents a percentage increase in necrosis relative to the control of 0.1-50); Average of necrosis [2, 33]: C (C represents a percentage increase in necrosis relative to the control of 0.1-50); Average of necrosis [2, 34]: C (C represents a percentage increase in necrosis relative to the control of 0.1-50)
